Data from paper PMC3498381, “Isolated Toll-like Receptor Transmembrane Domains Are Capable of Oligomerization” (PLoS ONE, 2012).
No end group written: not given here.

Tests used:
Details in all cases: Miller units normalized to poly-Leu* = 1 and corrected for expression, lower = stronger interaction, N in table
[1] = system: TLR2 TMD (functional ToxR chimera); test: Dominant-negative (heterotypic) ToxR assay, TLR2 as dominant phenotype; format: cell-based
Description: (§1) Next, we investigated heterotypic interactions of the TLRs. We specifically studied TLR2, TLR1, and TLR6 because they are cell surface expressed receptors known to form functional heterodimers. To determine the ability of these three cell surface TLRs to have heterotypic interactions within its family, we studied the ability of the TLR1, TLR2, and TLR6 TMDs to interact with the TLR receptors also expressed at the cell surface; namely, TLR1, TLR2, TLR4, TLR5, TLR6, and TLR10. We monitored these interactions using a dominant-negative ToxR assay (Fig. S1B) which works by having a second TMD expressed with a non-functional ToxR* intracellular domain. This ToxR* domain is incapable of binding the ctx promoter making any interactions with this second expressed TMD unable to produce the reporter enzyme. As such, any interaction between the functional ToxR and non-functional ToxR* TMDs will result in a reduction in signal output.
(§2) Figure 3 Cell- Surface Toll-like Recptor Heterotypic Interactions. (A) A dominant-negative ToxR assay was used to study heterotypic interactions of the cell-surface TLRs. Two TLR TMDs were encoded in the FHK12 E.coli reporter strain, one with a functional ToxR domain (dominant phenotype) and one with a nonfunctional ToxR* domain (negative phenotype). Interaction between the two different TMDs leads to a reduction in signal from that seen for homotypic interactions. The TMDs for GpA, TLR1, TLR2, and TLR6 were used with the functional ToxR domain while TMDs for poly-Leucine, TMD5, integrin αIIb, TLR1, TLR2, TLR4, TLR5, TLR6, and TLR10 were used with the nonfunctional ToxR* domain. Interactions were most prominent for the TLRs known to have heterotypic interactions – TLR2-TLR1 and TLR2-TLR6. […] We also saw interaction with the same TMD further validating the homotypic interactions. […] Each dominant phenotype was done in 3 technical replicates with each negative phenotype and >6 measurements made for each replicate. Error bars depict the standard error of the mean (n- Tables S3, S5, S7, S9). Western blots staining for MBP were performed to monitor expression levels of the constructs with the upper band being functional ToxR chimeras and the lower band being nonfunctional ToxR* chimeras – (B) GpA, (C) TLR1, (D) TLR2, and (E) TLR6. Significant differences for the same dominant phenotype were determined by use of the Tukey-Kramer test.
(§3) For heterotypic interactions one plasmid containing a functional ToxR domain (200 ng) and a second plasmid containing a non-functional ToxR* domain (200 ng) were co-transformed into chemically competent FHK12 E. coli (400 µL) by incubating on ice for 30 min, heat shock at 42°C for 90 s, incubation on ice for 2 min, and addition of SOC media (1600 µL) followed by incubation with shaking for 1 h at 37°C. This transformation mixture (50 µL) was then used to spread LB-agar plates containing cholaramphenicol (30 µg/mL), kanamycin (33 µg/mL), and ampicillin (100 µg/mL) and grown overnight at 37°C. Single colonies were selected from the plates and grown in 5 mL LB media containing cholaramphenicol (30 µg/mL), kanamycin (33 µg/mL), ampicillin (100 µg/mL), and arabinose (0.0025%) overnight (16–20 h) with shaking at 37°C. Analysis of activity was monitored as described in homotypic ToxR assays. Western blotting was done in the same manner as the homotypic ToxR assay with one band appearing for the functional ToxR construct and a second band for the nonfunctional ToxR* construct. Data were normalized to poly-Leu* Miller Units and corrected for varying protein expression levels using ImageJ (NIH) as previously reported.

[2] = system: TLR1 TMD (functional ToxR chimera); test: Dominant-negative (heterotypic) ToxR assay, TLR1 as dominant phenotype; format: cell-based
Description: as §1, §2, §3

[3] = system: TLR6 TMD (functional ToxR chimera); test: Dominant-negative (heterotypic) ToxR assay, TLR6 as dominant phenotype; format: cell-based, E. coli
Description: as §1, §2, §3

Substance	Mean TLR2-TMD* heterotypic interaction (ToxR signal) [1]	Mean TLR1-TMD* heterotypic interaction (ToxR signal) [2]	Mean TLR6-TMD* heterotypic interaction (ToxR signal) [3]
TLR1*: TLR1 TMD chimera with nonfunctional ToxR* domain (negative phenotype) (GNRASITLLIVTIVATMLVLAVTVTSLCSYLGSLIN; also: fused to non-functional ToxR* (S87H) and maltose binding protein, ends not given here)	0.2198	0.3722	0.3316
TLR2*: TLR2 TMD chimera with nonfunctional ToxR* domain (negative phenotype) (GNRASALVSGMCCALFLLILLTGVLCGSLIN; cysteine pairing not given here; also: fused to non-functional ToxR* (S87H) and maltose binding protein, ends not given here)	0.1930	0.3243	0.2802
TLR6*: TLR6 TMD chimera with nonfunctional ToxR* domain (negative phenotype) (GNRASITLLIVTIGATMLVLAVTVTSLCIYLGSLIN; also: fused to non-functional ToxR* (S87H) and maltose binding protein, ends not given here)	0.2588	0.3349	0.2564
